Results on 9 molecules are retold here after ChEMBL document CHEMBL1136538, “1,4-Dihydroxy-2,3-dioxatricyclo[8.4.0.0(4,9)]tetradecane and derivatives with in vitro activity against Plasmodium falciparum, Trypanasoma b brucei, Trypanasoma cruzi, and Leishmaniasis infantum” (Bioorg Med Chem Lett, 2003).

For one test, the system named is MRC5. In words: In vitro cytotoxicity against cell line MRC-5. Type of test: functional, cell-based. The following applies: Homo sapiens.
The test system of a further test is Leishmania infantum. In words: In vitro anti-protozoal parasite activity against Leishmania infantum L1 strain. It is filed as functional, organism-based.
In the next test the test system is Plasmodium falciparum. In words: In vitro anti-protozoal activity against Plasmodium falciparum Ghana. It is filed as functional, organism-based.
A further test concerns Trypanosoma cruzi. Kind of test: In vitro anti-protozoal parasite activity against Trypanosoma cruzi TC-1. Type of test: functional, organism-based.
The subject of the next test is Trypanosoma brucei. Kind of test: In vitro anti-protozoal parasite activity against Trypanosoma brucei TB-1. It is filed as functional, organism-based.

In the case of `O=C(O)CCC(=O)OC12CCCCC1C1CCCCC1(O)OO2` (stereo unspecified), the IC50 in the test with MRC5 is 13 µM; in the test on Leishmania infantum, more than 32 µM; with Plasmodium falciparum it was 1 µM; in the test with Trypanosoma cruzi, 13 µM; in the test on Trypanosoma brucei, 4 µM.
Take `O=C(O)CCCC(=O)OC12CCCCC1C1CCCCC1(O)OO2` (stereo unspecified): the IC50 was more than 32 µM with MRC5; more than 32 µM with Leishmania infantum; 19 µM with Plasmodium falciparum; 15 µM in the test with Trypanosoma cruzi; 16 µM in the test on Trypanosoma brucei.
On to `CC1CCCC2C3CCCC(C)C3(O)OOC12O` (stereo unspecified), for which the half-maximal inhibitory concentration (IC50) in the test on MRC5, in the test on Leishmania infantum, in the test on Plasmodium falciparum and in the test with Trypanosoma cruzi was more than 32 µM throughout.
On to `OC12CCCCC1C1CCCCC1(O)OO2` (stereo unspecified), for which the IC50 is 10 µM with MRC5; more than 32 µM in the test on Leishmania infantum; 0.1 µM in the test with Plasmodium falciparum; 24 µM with Trypanosoma cruzi; 13 µM in the test with Trypanosoma brucei.
For `COC12CCCCC1C1CCCCC1(O)OO2` (stereo unspecified) the same measures were 8 µM, more than 32 µM, 5 µM, 8 µM and 16 µM.
For `O=C(O)CC(=O)OC12CCCCC1C1CCCCC1(O)OO2` (stereo unspecified) the same measures were more than 32 µM, more than 32 µM, 6 µM, more than 32 µM and 10 µM.
Consider `O=C(O)CCCCC(=O)OC12CCCCC1C1CCCCC1(O)OO2` (stereo unspecified), for which the IC50 in the test with MRC5 was more than 32 µM; with Leishmania infantum, more than 32 µM; with Plasmodium falciparum, more than 32 µM; with Trypanosoma cruzi, 19 µM; in the test with Trypanosoma brucei, 17 µM.
As for `CO[C@H]1O[C@@H]2O[C@@]3(C)CC[C@H]4[C@H](C)CC[C@@H]([C@H]1C)[C@@]24OO3` [ARTEMETHER], the concentration for half-maximal inhibition (IC50) with Plasmodium falciparum turned out to be 0.025 µM.
On to `Cc1ccc(C(=O)Nc2ccc(S(=O)(=O)O)c3cc(S(=O)(=O)O)cc(S(=O)(=O)O)c23)cc1NC(=O)c1cccc(NC(=O)Nc2cccc(C(=O)Nc3cc(C(=O)Nc4ccc(S(=O)(=O)O)c5cc(S(=O)(=O)O)cc(S(=O)(=O)O)c45)ccc3C)c2)c1` [SURAMIN HEXASODIUM], for which the midpoint of inhibition in the test on Trypanosoma brucei, the IC50, lay at 0.043 µM.
